This note sets out measurements from patent US20260306460A1, “COMPOSITION FOR REMOVING AND INHIBITING SENESCENT CELLS, AND USES THEREOF” (LIFECEUTIX CO., LTD., priority 2023, published 2026).

Series [1] has as its system naturally aged C57BL6J mice. The experiment in a line: SA-β-gal staining in organs of naturally aged mice, Example 21-3, Table 19. In kind it is in vivo, mouse. The conditions noted are these: staining area, untreated aged = 100. Here is the method: 22-month-old female C57BL6J mice (KRIBB Laboratory Animal Resource Center) were acclimated to the experimental environment for one week, after which the aged mice were randomly assigned to experimental and control groups. Eight-week-old, non-aged mice served as controls. LX-403 was mixed in a 10% ethanol solution of PEG400 and administered orally at a concentration of 25 mg/kg daily for 21 days, or administered to the skin, joints, or eyes at a concentration of 1 μM. LX-1801 was mixed in distilled water with 4% DMSO, 30% PEG300, and 5% Tween80 and administered to the skin, joints, or eyes at a concentration of 0.4 μM daily for 21 days. LX-2001 was mixed in PBS and administered to the skin, joints, or eyes at a concentration of […] daily for 21 days. LX-2002 was mixed in distilled water with 4% DMSO, 30% PEG300, and 5% Tween80 and administered to the skin, joints, or eyes at a concentration of 2 μM daily for 21 days. […] LX-2005 was mixed in distilled water with 4% DMSO, 30% PEG300, and 5% Tween80 and administered to the skin, joints, or eyes at a concentration of 90 μM daily for 21 days. LX-2007 was mixed in distilled water with 4% DMSO, 30% PEG300, and 5% Tween80 and administered to the skin, joints, or eyes at a concentration of 90 μM daily for 21 days. […] LX-3002 was mixed in distilled water with 4% DMSO, 30% PEG300, and 5% Tween80 and administered orally at a concentration of 10 mg/kg daily for 21 days. […] LX-5411 was mixed in 5% PBS and administered orally at a concentration of 10 mg/kg daily for 21 days or administered to the skin, joints, or eyes at a concentration of 3 μM. LX-5701 was mixed in PBS and administered orally at a concentration of 360 mg/kg daily for 21 days. LX-6807 was mixed in saline and administered intraperitoneally at a concentration of 1 mg/kg daily for 21 days. LX-2101 or LX-2102 was mixed in PBS solution with 5% DMSO and administered intraperitoneally at a concentration of 20 mg/kg or 10 mg/kg, respectively, daily for 21 days. The control group received only the solution in the same volume. After the end of drug administration, the methods described in each example below were performed.
Mice were sacrificed, tissue sections were prepared from each organ, and stained for the senescence-associated marker (SA-β-gal) using the same method as in Example 7-3 of WO2023-085787 A1.

The subject of series [2] is senescent cells. The experiment in a line: Viability of senescent cells (CellTiter-Glo), Example 17, Table 13. To be noted: Homo sapiens, read-out: Survival (%).
Method: Cells induced to undergo senescence by doxorubicin treatment were treated with test compound at designated concentrations and measured using the CellTiter-Glo Luminescent Cell Viability Assay (Promega).
The test system of series [3] is transplanted liver of aged mice. The experiment in a line: Efficiency of liver transplantation from aged mice into young mice. In kind it is in vivo, mouse. As for the experimental part:
In addition, the efficiency of liver transplantation was evaluated. Livers extracted from aged mice of Example 21-1, untreated and treated with LX-403, were transplanted into young 3-month-old mice, and the efficiency of liver transplantation was evaluated 3 days later through analysis of aging and liver damage markers. As a result, when treated with LX-403, the amount of p16, an aging-related marker of the liver after transplantation, and serum AST and ALT, liver damage markers, decreased compared to the control group. […] This improvement in transplantation efficiency was also confirmed when the livers extracted from aged mice were transplanted after removing senescent cells under ex vivo conditions, such as by culturing them in an LX-403-containing medium.

Series [4] relates to HMGN1 secreted from senescent human cells. The experiment in a line: HMGN1 secretion (ELISA) from doxorubicin-induced senescent human cells, Example 11. The conditions noted are these: senescent untreated = 100%; 30 μM; 90 μM for LX-305, 1302, 1603, 2005, 2702, 2901, 3106; 270 μM for LX-1103, 2007. In kind it is cell-based.
Series [5] has as its system senescent A549 cells. The experiment in a line: Viability of senescent A549 cancer cells (CellTiter-Glo), Example 12. In kind it is cell-based, human. To be noted: 0 μM = 100.
Method: Cells were treated with doxorubicin or control (DMSO) and cultured.
Cancer cells in which aging was induced by treatment with doxorubicin were treated with the test compound at designated concentrations and measured using the CellTiter-Glo Luminescent Cell Viability Assay (Promega).
Series [6] concerns proliferating A549 cells. The experiment in a line: Survival of proliferating A549 cells treated with supernatant from death-induced cancer cells, Example 14. In kind it is cell-based, human. The conditions noted are these: for viability at 30 µM: Homo sapiens. Here is the method: In the same way as Examples 12 and 13, senescence of cancer (A549) cells was induced by treatment with doxorubicin or the control group (DMSO), and the cells were cultured. The cells were treated with LX-405 at a concentration of 30 μM. 3 days later, cell viability was measured using CellTiter-Glo Luminescent Cell Viability Assay (Promega) or an optical microscope. In the same manner as in Example 13, the medium supernatants comprising secreted fluid from normally proliferating and senescent cancer cells was obtained. Normally proliferating and senescent-induced cancer cells were treated with the medium supernatants.

Consider `CC1(C)CC[C@]2(NC(=O)C(C)(F)F)CC[C@]3(C)[C@H](C(=O)C=C4[C@@]5(C)C=C(C#N)C(=O)C(C)(C)[C@@H]5CC[C@]43C)[C@@H]2C1` [LX-2101, Omaveloxolone], for which, in series [1], the “SA-β-gal (%), Kidney” value is listed as 51 (±12.5) %; the “SA-β-gal (%), Liver” value is 71 (±5.5) %; the “SA-β-gal (%), Lung” value was 72 (±8.8) %; the “SA-β-gal (%), Skin” value is reported as 75 (±11.8) %. For the same molecule, the “SA-β-gal (%), eWAT” value in series [1] is recorded as 32 (±16.2) %.
With `C#CC(=O)N1[C@@H](CCCC)Cc2cc(OC)ccc2[C@@H]1c1ccc(NC23CC4CC(CC(C4)C2)C3)cc1` [LX-5411], in series [2], the viability at 1.1 µM stood at 75.4% and the viability at 10 µM was found to be 2.8%.
For `O=C1C2CCN(CC2)C1CNC(=O)C(F)(F)F` (centres unmarked) [LX-5701], in series [1], the “SA-β-gal (%), Kidney” value was 77 (±8.1) %; the “SA-β-gal (%), Liver” value was 65 (±4.8) %; the “SA-β-gal (%), Lung” value was 62 (±9.6) %; the “SA-β-gal (%), Skin” value is given as 76 (±6.9) %. The “SA-β-gal (%), eWAT” value in series [1] is on record as 48 (±3.9) %. In addition, in series [2], the viability at 1.1 µM stood at 91.4% and the viability at 10 µM worked out at 19.3%.
Take `COC(=O)[C@H]1Cc2c([nH]c3ccccc23)[C@H](c2ccc(S(C)(=O)=O)cc2)N1C(=O)CCl` [LX-5401, methyl (1S,3R)-2-(2-chloroacetyl)-1-(4-(methylsulfonyl)phenyl)-2,3,4,9-tetrahydro-1H-pyrido[3,4-b]indole-3-carboxylate]: in series [2], the viability at 1.1 µM turned out to be 99.5%, the viability at 10 µM is 66% and the viability at 30 µM is 24.6%.
Turning to `O=C(C(C[N+](=O)[O-])=NO)N1CCN(C(c2ccc(Cl)cc2)c2ccc(Cl)cc2)CC1` [LX-403], the “p16 of transplanted liver, serum AST and ALT” value in series [3] (3 days after transplantation) is recorded as “decreased”. In addition, in series [3] (mouse, in vivo), the “efficiency of liver transplantation” value was “improves the efficiency of long-term liver transplantation”.
`S=C(N/N=C1\CCCc2cccnc21)N1CCN(c2ccccn2)CC1` [LX-801] registered an HMGN1 in series [4] of 265%. Further, the Survival amounted to 78.1% in series [5] (1.1 μM), 12.7% in series [5] (10 μM) and 58.5% in series [5] ([…]).
For the molecule Tocofersolan [LX-3001], the HMGN1 in series [4] came to 301%. Moreover, the Survival in series [5] (1.1 μM) was found to be 101.6%; in series [5] (10 μM), 22.6%; in series [5] ([…]), 95.6%.
Turning to `COC(=O)[C@]12CCC(C)(C)C[C@H]1[C@H]1C(=O)C=C3[C@@]4(C)C=C(C#N)C(=O)C(C)(C)[C@@H]4CC[C@@]3(C)[C@]1(C)CC2` [LX-2102, Bardoxolone methyl], in series [1], the “SA-β-gal (%), Kidney” value is given as 62 (±8.6) %; the “SA-β-gal (%), Liver” value is on record as 68 (±6.8) %; the “SA-β-gal (%), Lung” value is given as 59 (±14.6) %; the “SA-β-gal (%), Skin” value is on record as 77 (±5.4) %. Also, the “SA-β-gal (%), eWAT” value in series [1] is 49 (±9.7) %.
Consider `COC(=O)c1ccc([C@H]2c3[nH]c4ccccc4c3C[C@H](C(=O)OC)N2C(=O)CCl)cc1` [LX-405], for which, in series [6] (A549, supernatant from No Cells), the Survival is 101.4 (±1.3) %. The viability at 30 µM in series [6] (A549, A549, supernatant from death-induced proliferating cells) came out at 98.6%; in series [6] (A549, A549, supernatant from death-induced senescent cells), 105%.
`Cc1cccc([C@H](C)c2cnc[nH]2)c1C` [LX-6807, Dexmedetomidine]: in series [2], the viability at 1.1 µM was 95.1%, the viability at 10 µM amounted to 42.5% and the viability at 30 µM came out at 6.9%.
